Where two headings read alike, the source gives them in different places.
Key:
[1] = test system: T-Rex 293 cell line SC3 cells having increased expression of androgen receptor protein; experiment: Cellular growth inhibition, T-Rex 293 SC3 cells with increased androgen receptor expression (doxycycline), CellTiter-Glo; type: cell-based; settings: T-Rex 293 SC3 cells with increased androgen receptor expression (exposed to 10 ng/mL doxycycline), 72 hours, CellTiter-Glo; read-out: GI50
Experimental: (§1) The following types of cells were prepared for this experiment: (i) a T-Rex 293 cell line having increased expression of androgen receptor protein due to exposure to doxycycline and (ii) a T-Rex 293 cell line lacking increased expression of androgen receptor protein. Ability of the test compounds to inhibit proliferation of the foregoing cell types was evaluated according to the procedures set forth below.
(§2) The doxycycline-inducible androgen receptor protein expressing cell line was established using the following protocol: T-Rex 293 cells were purchased from Invitrogen (Cat #R71007) and transfected using Lipofectamine 2000 with the wild-type androgen receptor protein sequence cloned into the pcDNA4/TO vector. Transfected cells were selected using 400 μg/mL Zeocin (Invitrogen Cat #R25001). Following selection, single clones were raised and maintained in Dulbecco's Modified Eagle Medium (DMEM) supplemented with 10% w/w Tetracycline-free fetal bovine serum (FBS) and 250 μg/mL Zeocin. Clones were analyzed for expression of androgen receptor protein in the presence and absence of 10 ng/ml doxycycline (Sigma Cat #D9891), and a single doxycycline-inducible clone (hereinafter “SC3”) was selected for use in downstream assays.
(§3) The SC3 cells were seeded on poly-D-lysine coated, black clear-bottom 384-well plates at 2500/well, in 25 μL Phenol Red Free Dulbecco's Modified Eagle Medium (DMEM) supplemented with 10% w/w charcoal-dextran treated fetal bovine serum (FBS) and 1% w/w pen-strep, with or without 10 ng/mL doxycycline. Pen-Strep is a commercially available mixture of penicillin G and streptomycin, which is used in mammalian cell culture media to prevent bacterial contamination. Phenol Red Free Dulbecco's Modified Eagle Medium (DMEM) supplemented with 10% w/w charcoal-dextran treated fetal bovine serum (FBS) and 1% w/w pen-strep, with or without 10 ng/mL doxycycline is herein referred to as Treatment Medium. Following seeding of cells in the plates, the plates were spun at 300×g for 30 seconds, then equilibrated to room temperature for 30 minutes, and then deposited in a humidified tissue culture incubator maintained at 37° C. with 5% CO2.
(§4) At 24 hours after seeding of the cells, dilutions of test compound were prepared in DMSO and dissolved in Treatment Medium, to achieve a final DMSO concentration of 0.5% w/w, thereby providing the Test Compound Solution. A 25 μL aliquot of the Test Compound Solution was added to cells in the well plates. An equal volume of a solution containing DMSO and Treatment Medium was used as a negative control. Following treatment of cells with Test Compound Solution or said equal volume of a solution containing DMSO and Treatment Medium, the plates were spun at 300×g for 30 seconds, and then left in an incubator for 72 hours.
(§5) At the end of the treatment duration, cell viability was quantified with CellTiter-Glo 2.0 reagent (Promega Cat #G9243). For this purpose, plates were equilibrated to room temperature for 30 minutes, and then 25 μL of CellTiter-Glo 2.0 reagent was added to cells in the plate wells. Plates were then agitated on a shaker for two minutes at 500 rpm and subsequently incubated at room temperature for 10 minutes. Following incubation, the plates were spun at 3000×g for 30 seconds, then sealed with an optical adhesive cover, and luminescence readings were measured with an EnVision Plate Reader.
(§6) Data was normalized using zero luminescence for baseline. A four-parameter non-linear regression curve fit was applied to dose-response data in GraphPad Prism data analysis software to determine the half-maximal growth inhibitory concentration (GI50) for each test compound.

[2] = test system: T-Rex 293 cell line SC3 cells lacking increased expression of androgen receptor protein; experiment: Cellular growth inhibition, T-Rex 293 SC3 cells lacking increased androgen receptor expression (no doxycycline), CellTiter-Glo; type: cell-based; settings: T-Rex 293 SC3 cells lacking increased androgen receptor expression (not exposed to doxycycline), 72 hours, CellTiter-Glo; read-out: GI50
Experimental: as §1, §2, §3, §4, §5, §6

VCaP cells = experiment: Cellular growth inhibition assay for VCaP cells, CellTiter-Glo; type: cell-based, human; settings: VCaP cells, 72 hours, CellTiter-Glo, read-out: GI50
Experimental: VCaP cells were purchased from American Type Cell Culture (ATCC Cat #CRL2876) and then seeded on poly-D-lysine coated, black clear-bottom 384-well plates at 5000/well in 25 μL Dulbecco's Modified Eagle Medium (DMEM) supplemented with 10% w/w Fetal bovine serum (FBS) and 1% w/w Pen-Strep. Pen-Strep is a commercially available mixture of penicillin G and streptomycin, which is used in mammalian cell culture media to prevent bacterial contamination. Dulbecco's Modified Eagle Medium (DMEM) supplemented with 10% w/w fetal bovine serum (FBS) and 1% w/w Pen-Strep is herein referred to as Treatment Medium. Following seeding of cells in the plates, the plates were spun at 300×g for 30 seconds, then equilibrated to room temperature for 30 minutes, and then deposited in a humidified tissue culture incubator maintained at 37° C. with 5% CO2.
as §4, §5, §6

SMILES | GI50 [1] | GI50 [2] | GI50 (VCaP cells) | GI50 (VCaP cells; Homo sapiens)
CCS(=O)(=O)c1ccc(Oc2ccc(CCCCC3CCN(c4ccc(C(=O)N[C@H]5CC[C@H](Oc6ccc(C#N)c(Cl)c6)CC5)nn4)CC3)cc2)c(-c2cn(C)c(=O)c3[nH]ccc23)c1 [I-64] | < 500 nM | 500 to 1500 nM | < 500 nM | –
CCS(=O)(=O)c1ccc(Oc2cccc(CCCC3CCN(c4ncc(C(=O)N[C@H]5CC[C@H](Oc6ccc(C#N)c(Cl)c6)CC5)cn4)CC3)c2F)c(-c2cn(C)c(=O)c3[nH]ccc23)c1 [I-65] | < 500 nM | > 3000 nM | < 500 nM | –
CCS(=O)(=O)c1ccc(Oc2ccc(CCCC3CCN(c4ccc(C(=O)N[C@H]5CC[C@H](Oc6ccc(C#N)c(Cl)c6)CC5)nn4)CC3)c(F)c2)c(-c2cn(C)c(=O)c3[nH]ccc23)c1 [I-83] | < 500 nM | < 500 nM | – | < 500 nM
Cn1cc(-c2cc(S(=O)(=O)CCCN3CCN(c4ccc(C(=O)N[C@H]5CC[C@H](Oc6ccc(C#N)c(Cl)c6)CC5)nn4)CC3)ccc2Oc2ccc(F)cc2F)c2cc[nH]c2c1=O [I-93] | < 500 nM | > 3000 nM | < 500 nM | –
Cn1cc(-c2cc(C(C)(C)O)ccc2Oc2ccc(C3CC4(CCN(c5ccc(C(=O)N[C@H]6CC[C@H](Oc7ccc(C#N)c(Cl)c7)CC6)nn5)CC4)C3)cc2)c2cc[nH]c2c1=O [I-117] | < 500 nM | < 500 nM | < 500 nM | –
Cn1cc(-c2cc(C(C)(C)O)ccc2Oc2ccc(CC3CC4(C3)CN(c3ccc(C(=O)N[C@H]5CC[C@H](Oc6ccc(C#N)c(Cl)c6)CC5)nn3)C4)cc2)c2cc[nH]c2c1=O [I-118] | < 500 nM | < 500 nM | – | < 500 nM
Cn1cc(-c2cc(C(C)(C)O)ccc2Oc2ccc(CN3CC4(CCN(c5ccc(C(=O)N[C@H]6CC[C@H](Oc7ccc(C#N)c(Cl)c7)CC6)nn5)CC4)C3)cc2)c2cc[nH]c2c1=O [I-120] | < 500 nM | < 500 nM | – | < 500 nM
Cn1cc(-c2cc(C(C)(C)O)ccc2Oc2ccc(CCN3CC4(C3)CN(c3ccc(C(=O)N[C@H]5CC[C@H](Oc6ccc(C#N)c(Cl)c6)CC5)nn3)C4)cc2)c2cc[nH]c2c1=O [I-121] | < 500 nM | 500 to 1500 nM | < 500 nM | –
Cn1cc(-c2cc(C(C)(C)O)ccc2Oc2cccc(N3CC(N(C4CC4)C4CCN(c5ccc(C(=O)N[C@H]6CC[C@H](Oc7ccc(C#N)c(Cl)c7)CC6)nn5)CC4)C3)c2F)c2cc[nH]c2c1=O [I-145] | < 500 nM | > 3000 nM | < 500 nM | –
Cn1cc(-c2cc(C(C)(C)O)ccc2Cc2ccc(CCC3CCN(c4ccc(C(=O)NC5CCC(Oc6ccc(C#N)c(Cl)c6)CC5)nn4)CC3)cc2)c2cc[nH]c2c1=O (stereo not drawn) [I-205, N-[4-(3-chloro-4-cyano-phenoxy)cyclohexyl]-6-[4-[2-[4-[[4-(1-hydroxy-1-methyl-ethyl)-2-(6-methyl-7-oxo-1H-pyrrolo[2,3-c]pyridin-4-yl)phenyl]methyl]phenyl]ethyl]-1-piperidyl]pyridazine-3-carboxamide] | < 500 nM | > 3000 nM | – | 500 to 1500 nM
Cn1cc(-c2cc(NC(=O)CCC3CCN(c4ccc(C(=O)NC5CCC(Oc6ccc(C#N)c(Cl)c6)CC5)nn4)CC3)ccc2Oc2ccc(F)cc2F)c2cc[nH]c2c1=O (stereo not drawn) [I-212, N-[4-(3-chloro-4-cyano-phenoxy)cyclohexyl]-6-[4-[3-[4-(2,4-difluorophenoxy)-3-(6-methyl-7-oxo-1H-pyrrolo[2,3-c]pyridin-4-yl)anilino]-3-oxo-propyl]-1-piperidyl]pyridazine-3-carboxamide] | < 500 nM | > 3000 nM | – | > 3000 nM
Cn1cc(-c2cc(NC(=O)CCCCCOC3CCN(c4ccc(C(=O)N[C@H]5CC[C@H](Oc6ccc(C#N)c(Cl)c6)CC5)nn4)CC3)ccc2Oc2ccc(F)cc2F)c2cc[nH]c2c1=O [I-215] | < 500 nM | 500 to 1500 nM | > 3000 nM | –
CCS(=O)(=O)c1ccc(Oc2ccc(CCC3CCN(c4ccc(C(=O)N[C@H]5CC[C@H](Oc6ccc(C#N)c(Cl)c6)CC5)nn4)CC3)cn2)c(-c2cn(C)c(=O)c3[nH]ccc23)c1 [I-220] | < 500 nM | > 3000 nM | > 3000 nM | –

Source: patent US20250388575A1, “HETEROBIFUNCTIONAL COMPOUNDS AND METHODS OF TREATING DISEASE” (Halda Therapeutics OpCo, Inc., priority 2022, published 2025)
